# Reference: ChEMBL document CHEMBL1201862, “PubChem BioAssay data set” (2004)
# Active and inactive are the calls of the source.
# Assays:
# [1] = HepG2 cell cytotoxicity, dose response, cytotoxicity control, plate reader, cherry-pick, antagonist series (AID 743416); format: functional, cell-based
# [2] = MC4R antagonists, dose response, counter-screen for LGR2 antagonist project, cell-based, plate reader, cherry pick (AID 743444); format: functional;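 note: transfected HEK 293 cells stimulated with alpha-MSH peptide; potency of inhibitors of the alpha-MSH evoked signal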
# [3] = miR-122 activators in hepatoma reporter cells, dose response, cell-based, Huh7 psiCHECK-miR122, Renilla luciferase, cherry-picked (AID 651956); format: functional;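 note: huh7 hepatoma cells stably carrying a psiCHECK-2 miR-122 sensor plasmid; renilla luciferase signal reporting endogenous miR-122 activity after 48 h compound exposure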
# [4] = A549 cell cytotoxicity, dose response, cytotoxicity control, plate reader, cherry-pick, antagonist series (AID 743412); format: functional, cell-based
# [5] = LGR2 antagonists, dose response, cell-based, HEK293, CRE-luciferase reporter, cherry pick, set 2 (AID 743343); format: functional;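 note: transfected cells were stimulated with diluted bursicon conditioned medium after compound addition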
# [6] = HEK293T cytotoxicity, dose response, cytotoxicity control for miR-122 modulator project, cell-based, activator set, cherry-pick (AID 720690); format: functional;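 note: HEK293T human cells scored for general mammalian cytotoxicity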
# [7] = HEK293 cell cytotoxicity, dose response, cytotoxicity control, plate reader, cherry-picked samples (AID 743446); format: functional, cell-based
# [8] = molecular target: Endoplasmic reticulum aminopeptidase 1 (Homo sapiens, UniProt Q9NZ08); test: ERAP1 aminopeptidase inhibitors, dose response, biochemical, cherry-pick, set 2, plate reader (AID 743314)
# [9] = molecular target: T1, Disintegrin and metalloproteinase domain-containing protein 17 (Homo sapiens, UniProt P78536); test: ADAM17 protease inhibitors, dose response, counter-screen for ADAM10 exosite inhibitor project, biochemical, quenched FRET substrate (AID 743253)
# [10] = ADAM10 inhibitors, peptide cleavage, dose response, biochemical, QFRET (AID 743254);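 note: ADAM10 enzyme with the DM2 quenched FRET peptide as substrate; EDANS fluorescence gain as the protease cuts the substrate; inhibitor potency against ADAM10 proteolytic activity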
# [11] = molecular target: NAD-dependent protein deacylase sirtuin-5, mitochondrial (Homo sapiens, UniProt Q9NXA8); test: SIRT5 desuccinylase inhibitors, dose response, biochemical, fluorescence imaging, cherry-pick, set 5 (AID 720591);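 note: desuccinylation of succinyl peptide AMC substrate read as fluorescence after trypsin release; potency of inhibitors that lower fluorescence and may act on trypsin instead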
# [12] = RKO cell viability reduction, dose response, CellTiter-Glo luminescence (AID 1117322); format: functional
# [13] = HCT116 cell viability decrease, GSK3B pretreatment – CellTiter-Glo, IC50, dose response (AID 1117339); format: functional; settings: HCT-116
# [14] = cytotoxicity toward HCT116 cells – cell-based, CellTiter-Glo luminescence, IC50, dose response (AID 1117332); format: functional; settings: HCT-116
# [15] = SNU-C1 cell viability reduction, dose response, CellTiter-Glo luminescence (AID 1117323); format: functional, cell-based
# [16] = CellTiter-Glo luminescent dose response of DLD-1 viability loss (AID 1117352); format: functional
# [17] = cytotoxicity toward Colo320 cells – cell-based, CellTiter-Glo luminescence, IC50, dose response (AID 1117334); format: functional; settings: COLO 320
# [18] = cytotoxicity toward HT-29 cells – cell-based, CellTiter-Glo luminescence, IC50, dose response (AID 1117330); format: functional
# [19] = Concentration-dependent survival of SW480 colon cancer line, luminescence detection with CellTiter-Glo, half-maximal inhibitory concentration (AID 1117338); format: functional
# [20] = T. cruzi growth inhibition in host cells, dose response, cell-based, plate reader, dry powder, set 2 (AID 652275); format: functional
# [21] = HepG2 cell cytotoxicity, dose response, cytotoxicity control, cherry-picked samples (AID 1159577); format: functional, cell-based
# [22] = P. falciparum Dd2 growth inhibitors, dose response, SYBR Green, cherry-picked samples (AID 1159567); format: functional, cell-based
# [23] = molecular target: RNA-editing ligase 1, mitochondrial (Trypanosoma brucei brucei, UniProt P86926); test: TbREL1 ligase inhibitors, dose response, biochemical, fluorescence, Trypanosoma brucei (AID 1117295); format: functional
# [24] = inhibitors of Vif binding to APOBEC3G peptide, primary screen, biochemical, TR-FRET, GST-Vif 1-94, biotin-A3G peptide, dose response retest (AID 1117319); format: functional;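 note: TR-FRET signal of purified GST-Vif binding a biotinylated A3G peptide; inhibitors lower the FRET signal by blocking Vif and A3G binding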
# [25] = molecular target: Diphosphomevalonate decarboxylase (Streptococcus pneumoniae serotype 2 (strain D39 / NCTC 7466), UniProt Q9FD53); test: S. pneumoniae DPM-DC inhibition retest, confirmation, biochemical, cuvette format, coupled NADH fluorescence (AID 1028); format: functional
# Vero = test: host cell cytotoxicity of antiviral hits, dose response, cytotoxicity control for West Nile virus antiviral project, secondary assay (AID 1650); format: functional; settings: Chlorocebus sabaeus
# [26] = molecular target: T2, Carboxy-terminal domain RNA polymerase II polypeptide A small phosphatase 1 (Homo sapiens, UniProt Q9GZU7); test: inhibitors of CTDSP1, concentration-response testing, biochemical assay, absorbance-based, actives from ultra-high-throughput screening (AID 540297); format: functional
# T2 sequence (Q9GZU7 whole entry): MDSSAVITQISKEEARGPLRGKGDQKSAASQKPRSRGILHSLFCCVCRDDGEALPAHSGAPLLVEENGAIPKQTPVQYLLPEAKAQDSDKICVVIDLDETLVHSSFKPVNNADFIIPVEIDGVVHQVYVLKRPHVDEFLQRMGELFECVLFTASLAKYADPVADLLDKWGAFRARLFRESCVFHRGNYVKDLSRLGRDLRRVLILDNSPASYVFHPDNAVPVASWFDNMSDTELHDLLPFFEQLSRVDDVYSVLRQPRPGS
# [27] = molecular target: T3, Probable nicotinate-nucleotide adenylyltransferase (Staphylococcus aureus (strain N315), UniProt P65502); format: functional, Staphylococcus aureus subsp. aureus N315;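 for IC50 Mean: confirmatory dose-response retesting of NadD inhibitor hits first found in an ultra-high-throughput screen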
# [28] = molecular target: T3, Probable nicotinate-nucleotide adenylyltransferase; format: functional, Staphylococcus aureus subsp. aureus N315; settings: read-out: IC50_Mean
# Albumin = Albumin (Bos taurus, UniProt P02769); test: Counterscreen for inhibitors of T-cell receptor (TCR)-CD3 interaction: Fluorescence-based biochemical high throughput dose response assay to identify inhibitors of T-cell receptor (TCR)-CD3 interaction using a TAMRA-labeled BSA probe.; format: functional
# [29] = molecular target: T4, Oxysterols receptor LXR-beta (Homo sapiens, UniProt P55055); test: LXR agonists, Gal4 luciferase reporter, dose response, counter-screen for ssDAF-12 agonist project, cell-based, luminescence, HEK293, S. stercoralis campaign (AID 720737); format: functional; settings: read-out: IC50 (the source's name)
# T4 sequence (P55055 whole entry): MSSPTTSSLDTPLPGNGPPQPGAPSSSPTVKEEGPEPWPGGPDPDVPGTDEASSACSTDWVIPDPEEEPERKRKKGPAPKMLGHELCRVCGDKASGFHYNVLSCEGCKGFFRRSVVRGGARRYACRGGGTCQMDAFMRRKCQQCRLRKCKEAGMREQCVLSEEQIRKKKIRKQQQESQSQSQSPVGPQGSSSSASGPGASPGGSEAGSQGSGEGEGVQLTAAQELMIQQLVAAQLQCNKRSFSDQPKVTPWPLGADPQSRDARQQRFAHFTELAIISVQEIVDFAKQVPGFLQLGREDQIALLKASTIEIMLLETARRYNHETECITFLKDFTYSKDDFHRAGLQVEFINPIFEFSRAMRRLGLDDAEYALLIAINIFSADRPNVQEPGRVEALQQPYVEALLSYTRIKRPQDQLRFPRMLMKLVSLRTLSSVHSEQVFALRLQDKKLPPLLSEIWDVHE
# [30] = Luminescence-based cell-based high throughput dose response assay to identify activators of the DAF-12 from the parasite S. stercoralis (ssDAF-12).; format: functional
# [31] = molecular target: T1, Disintegrin and metalloproteinase domain-containing protein 17; test: exosite inhibitors of ADAM17, dose response, biochemical (AID 743260)
# [32] = ADAM10 protease inhibitors, dose response, selectivity assay for ADAM17 exosite inhibitor project, biochemical, FRET peptide substrate, recombinant human ADAM10 (AID 743259);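 note: ADAM10 enzyme cleaving a FRET peptide substrate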
# T3 sequence (P65502 whole entry): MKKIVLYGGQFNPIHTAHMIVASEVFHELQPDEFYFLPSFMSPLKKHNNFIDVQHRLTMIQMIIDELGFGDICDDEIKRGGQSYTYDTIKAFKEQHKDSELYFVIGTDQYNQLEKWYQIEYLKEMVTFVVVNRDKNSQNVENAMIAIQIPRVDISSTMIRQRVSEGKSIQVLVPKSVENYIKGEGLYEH
# T1 sequence (P78536 whole entry, the tested form may be a part): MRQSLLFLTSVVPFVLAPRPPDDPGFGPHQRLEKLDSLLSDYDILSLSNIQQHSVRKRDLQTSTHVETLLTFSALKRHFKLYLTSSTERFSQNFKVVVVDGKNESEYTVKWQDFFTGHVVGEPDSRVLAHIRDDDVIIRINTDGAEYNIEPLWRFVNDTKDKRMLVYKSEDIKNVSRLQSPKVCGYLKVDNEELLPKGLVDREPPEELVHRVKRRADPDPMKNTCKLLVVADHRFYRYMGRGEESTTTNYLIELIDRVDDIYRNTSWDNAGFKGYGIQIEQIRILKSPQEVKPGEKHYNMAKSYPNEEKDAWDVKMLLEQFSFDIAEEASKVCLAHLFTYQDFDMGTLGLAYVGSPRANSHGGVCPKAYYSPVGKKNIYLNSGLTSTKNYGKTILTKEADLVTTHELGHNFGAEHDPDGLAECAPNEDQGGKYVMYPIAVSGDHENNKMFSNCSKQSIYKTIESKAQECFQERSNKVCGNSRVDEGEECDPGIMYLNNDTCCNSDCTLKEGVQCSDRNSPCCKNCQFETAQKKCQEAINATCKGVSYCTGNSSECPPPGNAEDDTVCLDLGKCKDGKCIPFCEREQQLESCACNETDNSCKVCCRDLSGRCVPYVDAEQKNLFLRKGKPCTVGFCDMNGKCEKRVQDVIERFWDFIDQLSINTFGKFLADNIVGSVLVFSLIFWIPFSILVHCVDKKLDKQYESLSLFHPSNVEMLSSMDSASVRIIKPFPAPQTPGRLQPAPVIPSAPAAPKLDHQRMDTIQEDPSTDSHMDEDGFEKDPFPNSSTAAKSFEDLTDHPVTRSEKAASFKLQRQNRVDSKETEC
# Chain of Albumin (P02769 whole entry, the tested form may be a part): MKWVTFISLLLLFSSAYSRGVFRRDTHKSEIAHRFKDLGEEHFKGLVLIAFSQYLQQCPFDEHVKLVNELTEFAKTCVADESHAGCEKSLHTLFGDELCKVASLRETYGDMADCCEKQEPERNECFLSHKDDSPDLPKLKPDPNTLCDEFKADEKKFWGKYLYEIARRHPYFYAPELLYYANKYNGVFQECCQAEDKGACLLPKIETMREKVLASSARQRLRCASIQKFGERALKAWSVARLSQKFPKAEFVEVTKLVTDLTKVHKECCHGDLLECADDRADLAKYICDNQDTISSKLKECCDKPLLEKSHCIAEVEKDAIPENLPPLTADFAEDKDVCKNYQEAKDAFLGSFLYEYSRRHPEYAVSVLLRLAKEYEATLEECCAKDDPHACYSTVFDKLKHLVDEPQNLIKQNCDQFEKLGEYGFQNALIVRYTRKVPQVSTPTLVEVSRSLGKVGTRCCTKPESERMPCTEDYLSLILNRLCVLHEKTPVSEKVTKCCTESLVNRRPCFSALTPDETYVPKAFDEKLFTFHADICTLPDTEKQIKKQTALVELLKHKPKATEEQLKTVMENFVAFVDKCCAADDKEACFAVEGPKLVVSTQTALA
# Chain of RNA-editing ligase 1, mitochondrial (P86926 whole entry): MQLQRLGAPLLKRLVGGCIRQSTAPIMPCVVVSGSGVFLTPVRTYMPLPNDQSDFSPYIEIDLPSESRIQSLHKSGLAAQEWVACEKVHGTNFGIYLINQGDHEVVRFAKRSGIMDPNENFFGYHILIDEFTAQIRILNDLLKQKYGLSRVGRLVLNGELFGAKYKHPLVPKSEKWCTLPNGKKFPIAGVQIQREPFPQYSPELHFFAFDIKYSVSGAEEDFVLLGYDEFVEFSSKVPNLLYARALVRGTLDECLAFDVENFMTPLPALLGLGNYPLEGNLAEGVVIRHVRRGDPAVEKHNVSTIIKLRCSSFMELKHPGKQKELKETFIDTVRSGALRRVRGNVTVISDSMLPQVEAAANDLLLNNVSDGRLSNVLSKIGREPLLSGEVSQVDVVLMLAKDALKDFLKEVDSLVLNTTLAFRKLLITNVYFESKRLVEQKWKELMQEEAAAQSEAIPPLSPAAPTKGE
# Chain of NAD-dependent protein deacylase sirtuin-5, mitochondrial (Q9NXA8 whole entry): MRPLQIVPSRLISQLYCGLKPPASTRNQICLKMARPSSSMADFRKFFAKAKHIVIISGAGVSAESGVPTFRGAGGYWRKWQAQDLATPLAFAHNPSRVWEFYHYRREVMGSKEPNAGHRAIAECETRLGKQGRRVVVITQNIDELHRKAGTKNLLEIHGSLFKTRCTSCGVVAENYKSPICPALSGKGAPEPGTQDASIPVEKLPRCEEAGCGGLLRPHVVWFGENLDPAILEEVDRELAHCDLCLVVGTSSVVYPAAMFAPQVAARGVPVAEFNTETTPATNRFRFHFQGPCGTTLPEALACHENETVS
# Chain of Diphosphomevalonate decarboxylase (Q9FD53 whole entry): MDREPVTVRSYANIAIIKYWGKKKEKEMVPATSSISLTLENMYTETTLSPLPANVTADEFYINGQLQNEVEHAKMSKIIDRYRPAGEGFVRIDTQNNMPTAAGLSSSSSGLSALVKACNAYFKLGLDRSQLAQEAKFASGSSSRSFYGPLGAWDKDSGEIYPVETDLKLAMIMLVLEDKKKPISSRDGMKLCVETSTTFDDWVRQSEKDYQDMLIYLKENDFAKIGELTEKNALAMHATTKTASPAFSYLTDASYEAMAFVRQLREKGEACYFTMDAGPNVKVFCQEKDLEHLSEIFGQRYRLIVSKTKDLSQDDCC
# Chain of Endoplasmic reticulum aminopeptidase 1 (Q9NZ08 whole entry, the tested form may be a part): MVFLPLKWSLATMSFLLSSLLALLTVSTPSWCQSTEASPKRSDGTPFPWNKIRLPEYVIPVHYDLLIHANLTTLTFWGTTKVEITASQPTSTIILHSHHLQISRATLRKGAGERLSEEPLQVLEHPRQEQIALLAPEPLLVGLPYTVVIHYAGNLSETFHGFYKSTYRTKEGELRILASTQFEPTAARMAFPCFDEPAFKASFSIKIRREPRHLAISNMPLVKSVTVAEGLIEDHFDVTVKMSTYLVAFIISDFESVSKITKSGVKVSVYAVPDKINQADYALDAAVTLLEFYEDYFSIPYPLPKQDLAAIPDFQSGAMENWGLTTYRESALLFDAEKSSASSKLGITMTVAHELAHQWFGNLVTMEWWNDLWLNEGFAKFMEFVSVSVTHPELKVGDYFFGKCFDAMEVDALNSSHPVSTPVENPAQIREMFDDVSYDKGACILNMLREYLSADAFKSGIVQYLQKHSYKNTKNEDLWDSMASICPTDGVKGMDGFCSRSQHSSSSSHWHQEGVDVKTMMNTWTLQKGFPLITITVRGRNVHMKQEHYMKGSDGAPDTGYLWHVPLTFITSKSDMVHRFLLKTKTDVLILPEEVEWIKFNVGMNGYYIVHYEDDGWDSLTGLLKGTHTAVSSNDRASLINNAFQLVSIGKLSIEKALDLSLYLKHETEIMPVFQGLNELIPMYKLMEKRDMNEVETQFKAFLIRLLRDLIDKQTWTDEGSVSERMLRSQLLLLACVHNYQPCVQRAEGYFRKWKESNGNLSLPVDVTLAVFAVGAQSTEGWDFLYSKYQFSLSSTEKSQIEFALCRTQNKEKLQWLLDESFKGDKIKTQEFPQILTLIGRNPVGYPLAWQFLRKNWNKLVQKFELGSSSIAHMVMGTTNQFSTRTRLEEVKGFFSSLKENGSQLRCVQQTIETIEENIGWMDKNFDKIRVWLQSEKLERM
smiles,measurement,setting,value
C[C@H](CO)N1C[C@H](C)[C@H](CN(C)C(=O)Nc2cccc3ccccc23)Oc2ncc(C#Cc3ccc(C(F)(F)F)cc3)cc2C1=O,AC50,[1],23.1 µM (active)
same,AC50,[2],21.7 µM (active)
same,AC50,[3],13.9 µM (active)
same,AC50,[4],21.3 µM (active)
same,AC50,[5],41.1 µM (active)
same,AC50,[6],25.9 µM (active)
same,AC50,[7],41.4 µM (active)
Cc1c(CC(=O)N2CCN(C(=O)C3COc4ccccc4O3)CC2)c(=O)oc2cc(O)c(Cl)cc12 (centres undefined),AC50,[8],3.11 µM (active)
O=C(CSc1nnc(Cc2cccs2)n1-c1ccc(Cl)cc1)Nc1ccc(OCc2ccccc2)cc1,IC50,[9],> 69.5 µM (inactive)
same,IC50,[10],> 69.5 µM (inactive)
O=C(NCCN1CCCC(O)C1)c1cc(COc2ccc(F)cc2Cl)on1 (centres undefined),AC50,[11],> 30 µM (inactive)
CC(C)=CCCC(C)=CCCC(C)=CCCC=C(C)CCC=C(C)CCC=C(C)C,IC50,[12],> 20 µM (inactive)
same,IC50,[13],> 20 µM (inactive)
same,IC50,[14],> 20 µM (inactive)
same,IC50,[15],> 20 µM (inactive)
same,IC50,[16],> 20 µM (inactive)
same,IC50,[17],> 20 µM (inactive)
same,IC50,[18],> 20 µM (inactive)
same,IC50,[19],> 20 µM (inactive)
CC(C)(C)[S@+]([O-])N1Cc2cc(C(=O)NCc3ccc4c(c3)OCO4)nc(-c3cccc(-c4cccnc4)c3)c2[C@@H]1CCO,AC50,[20],1.14 µM (active)
COc1ccc(C#Cc2ccc([C@@H]3[C@H](CO)N4CCCCN(C(=O)Cc5ccccc5)C[C@@H]34)cc2)cc1,AC50,[21],7.73 µM (active)
same,AC50,[22],1.42 µM (active)
COCCCNC(=O)C1CCN(S(=O)(=O)c2ccc3[nH]c(=O)oc3c2)CC1,IC50,[23],42.4 µM (inactive)
CCN(CC)CCN/C=C1\C(=O)CNC1=O,IC50,[24],> 100 µM (active)
O=C(NC1CC1)c1cccc(-n2sc3ccccc3c2=O)c1,IC50,[25],20.4 µM (active)
Cc1ccccc1NC(=O)c1cc(C(=O)c2cc(Cl)ccc2O)cn(-c2ccccc2C)c1=O,CC50,Vero,64.8 µM (active)
CN(CCC#N)C(=O)COC(=O)c1c2c(nc3ccccc13)/C(=C\c1ccco1)CC2,IC50,[26],3.2 µM (active)
same,IC50,[27],9.77 µM (active)
same,IC50,[28],18 µM (active)
same,IC50,Albumin,> 94.1 µM (inactive)
CNc1cncc(-c2ccc(OC)c(OC)c2)n1,EC50,[29],> 67.6 µM (inactive)
same,IC50,[30],> 67.6 µM (inactive)
N#Cc1cccc(NC(=O)c2cc(C3CCCCN3S(=O)(=O)c3ccccc3)on2)c1 (centres undefined),IC50,[31],> 69.5 µM (inactive)
same,IC50,[32],> 69.5 µM (inactive)
